Counter-ions that a name gives are not always drawn.
Tests used:
[1] = oral administration to human Type 2 diabetics; cited from earlier work
[2] = In vitro dissolution of sitagliptin phosphate from the drug film layer; format: physicochemical; settings: FIG. 4

Row | dissolution of sitagliptin phosphate compared with sitagliptin phosphate in JANUMET ([2]; comparator JANUMET (immediate-release metformin HCl and sitagliptin phosphate)) | time to complete dissolution of sitagliptin phosphate from the drug film layer ([2]; drug film layer of the composition) | Compound | effect on fasting glucose, postprandial glucose excursion and HbA1c [1]
1 |  |  | Cn1c(=O)cc(N2CCC[C@@H](N)C2)n(Cc2ccccc2C#N)c1=O [alogliptin] | reduce fasting glucose and postprandial glucose excursion
2 |  |  | N#C[C@@H]1CCCN1C(=O)CNC12CC3CC(CC(O)(C3)C1)C2 [vildagliptin] | reduce fasting glucose and postprandial glucose excursion
3 |  |  | N[C@@H](CC(=O)N1CCn2c(nnc2C(F)(F)F)C1)Cc1cc(F)c(F)cc1F [sitagliptin, (2R)-4-oxo-4-[3-(trifluoromethyl)-5,6-dihydro[1,2,4]triazolo[4,3-a]pyrazin-7(8H)-yl]-1-(2,4,5-trifluorophenyl)butan-2-amine] | reduce fasting glucose and postprandial glucose excursion
4 | comparable | ≤ 30 min | N[C@@H](CC(=O)N1CCn2c(nnc2C(F)(F)F)C1)Cc1cc(F)c(F)cc1F [sitagliptin phosphate, dihydrogenphosphate salt of (2R)-4-oxo-4-[3-(trifluoromethyl)-5,6-dihydro[1,2,4]triazolo[4,3-a]pyrazin-7(8H)-yl]-1-(2,4,5-trifluorophenyl)butan-2-amine] | 

Source: US20100323011A1, “PHARMACEUTICAL COMPOSITIONS OF A COMBINATION OF METFORMIN AND A DIPEPTIDYL PEPTIDASE-IV INHIBITOR” (priority 2008, published 2010)
